From US20250281449A1, “NITROGEN-CONTAINING ANALOGS OF SALINOMYCIN FOR USE IN MULTIPLE MYELOMA (MM)” (Centre National de la Recherche Scientifique, priority 2021, published 2025) come the findings set out here.

The subject of data set [1] is XG-1, XG-7 and OPM-2 cells. Description: Cell cycle analysis (BrdU incorporation/DAPI, flow cytometry). The conditions noted are these: IC50 Ironomycin, 72 hours. It is filed as cell-based, human. How it is done: XG-1, XG-7 and OPM-2 cells were incubated with vehicle or with IC50 Ironomycin for 72 hours. Cell cycle was analyzed using flow cytometry, S phase was stained by an anti-BrdU antibody after BrdU incorporation and DNA content was strained by 4′,6-diamidino-2-phénylindole (DAPI). Histograms represent the mean percentage and SD of each cell cycle phase of three independent experiments. * and ** indicate a significant difference of P<0.05 and P<0.01, respectively with paired student t-test.
(§1) The cell cycle progression was studied by flow cytometry using the Apoptosis, DNA Damage, and Cell Proliferation Kit (562253, Becton Dickinson). Briefly, cells were labeled with bromodeoxyuridine (BrdU), an analog of the DNA precursor thymidine that can be incorporated into newly synthesized DNA and detected with an antibody against BrdU to measure cell proliferation. After this labeling, the cells were fixed, permeabilized and treated with DNase to expose the BrdU epitopes. Following this treatment, cells were simultaneously stained with fluorochrome-labeled anti-BrdU, anti-cleaved Poly A DP-ribose polymerase 1 (PARP), anti-H2AX phosphorylated at serine 139. They were also stained with DAPI to determine DNA content. Finally, cells were resuspended in staining buffer and analyzed by flow cytometry (Fortessa, Becton Dickinson).
For orientation: Uptake of a labelled nucleoside into DNA is a usual measure of proliferation.

Data set [2] relates to CD34+ cells (normal hematopoietic progenitors). It is filed as cell-based, human. How it is done: Hematopoietic progenitor colony-forming units assay were performed with CD34+ cells from apheresis of 5 donors. Cells were cultured in hydroxyl-methyl-cellulose medium with or without conventional chemotherapy or Ironomycin (A) or AM-23 (B). CFU-C, CFU-E/BFU-E and CFU-GM, -G, -M were counted after 14 days culture. N=5.

For data set [3], the system named is XG-1, XG-7 and OPM-2 cell lines. Put plainly: Apoptosis induction (Annexin V staining or PARP-cleavage, flow cytometry). The format is cell-based, human. Conditions: IC50 of ironomycin, 72H. How it is done: XG-1, XG-7 and OPM-2 cell lines were treated with IC50 of ironomycin during 72H. Apoptosis induction was monitored by Annexin V staining (XG-1 and XG-7) or PARP-cleavage and analyzed by flow cytometry (A).
Annexin V-PE staining for apoptosis analysis was performed using the “PE Annexin V Apoptosis Detection Kit I” (559763, Becton Dickinson).
as §1
(In general: In flow cytometry, cells or beads pass a laser one at a time.)

In data set [4] the test system is XG2 melphalan resistant (XG2 Melph R) cell line. Description: Drug combination concentration matrix, viability by ATP quantification, Bliss synergy. It is filed as cell-based, human. Conditions: melphalan resistant cell line XG2 MeIR, 96 h. How it is done:
XG-7 or XG2 WT (XG2 neg) or XG2 melphalan resistant (XG2 Melph R) cell lines were respectively treated with increasing concentrations of ironomycin combined with melphalan during 96 h and cell viability was tested by ATP quantification to obtain the viability matrix. The synergy matrix was calculated as described in Material and Methods.
(§2) HMCL cell lines were cultured for 4 days in 96-well flat-bottom microtiter plates in RPMI 1640 medium or DMEM medium, 10% or 20% FCS (control medium) in the presence of various compounds. The number of viable cells in culture was determined using the Cell Titer-Glo Luminescent Cell Viability Assay from Promega, Madison, WI, USA using a Centro LB 960 luminometer (Berthold Technologies, Bad Wildbad, Germany).
The interaction between the drugs tested in vitro was investigated with a concentration matrix test, in which increasing concentration of each single drug were assessed with all possible combinations of the other drugs. For each combination, the percentage of expected growing cells in the case of effect independence was calculated according to the Bliss equation (Combes et al., 2019): […]
where fuC is the expected fraction of cells unaffected by the drug combination in the case of effect independence, and fuA and fuB are the fractions of cells unaffected by treatment A and B, respectively. […]

In another data set the test system is XG-1. Description: Cell viability assay (Cell Titer-Glo), HMCL. The format is cell-based. The conditions noted are these: Homo sapiens; XG-1 HMCL, 96H; read-out: IC50. The method, then:
(§3) The panel of 17 HMCL cell lines were incubated with increasing concentrations of Ironomycin (A), AM23 (B) or vehicle for 96H.
as §2
(§4) This test is based on quantitation of the intracellular ATP present, which signals the presence of metabolically active cells. Data are expressed as the mean percentage of six replicates, normalized to the untreated control.
On the technique in general: In ATP-based viability assays light output follows the ATP content of the culture.

Another data set deals with AMO-1. Put plainly: Cell viability assay (Cell Titer-Glo), HMCL. The format is cell-based. The conditions noted are these: Homo sapiens, AMO1; AMO-1 HMCL, 96H. How it is done: as §3, §2, §4
The next data set has as its system XG21. Put plainly: Cell viability assay (Cell Titer-Glo), HMCL. The format is cell-based. The conditions noted are these: Homo sapiens; XG21 HMCL, 96H; read-out: IC50. How it is done:
as §3, §2, §4

The next data set concerns JJN3. Description: Cell viability assay (Cell Titer-Glo), HMCL. Conditions: Homo sapiens, JJN-3, 96H. The format is cell-based. How it is done:
as §3, §2, §4

The test system of the next data set is XG24. Put plainly: Cell viability assay (Cell Titer-Glo), HMCL. The format is cell-based. Conditions: Homo sapiens; XG24 HMCL, 96H; read-out: IC50. How it is done:
as §3, §2, §4

A further data set concerns XG-7. Put plainly: Cell viability assay (Cell Titer-Glo), HMCL. The conditions noted are these: Homo sapiens; XG-7 HMCL, 96H; read-out: IC50. The format is cell-based. The method, then: as §3, §2, §4
For a further data set, the system named is RPMI. Description: Cell viability assay (Cell Titer-Glo), HMCL. The format is cell-based. The conditions noted are these: Homo sapiens, 96H. The method, then: as §3, §2, §4
The next data set deals with XG20. Description: Cell viability assay (Cell Titer-Glo), HMCL. The format is cell-based. Conditions: Homo sapiens; XG20 HMCL, 96H; read-out: IC50. How it is done:
as §3, §2, §4

The next data set concerns L363. Description: Cell viability assay (Cell Titer-Glo), HMCL. It is filed as cell-based. Conditions: Homo sapiens, L-363, 96H. The method, then: as §3, §2, §4
Another data set relates to XG2. Put plainly: Cell viability assay (Cell Titer-Glo), HMCL. It is filed as cell-based. Conditions: Homo sapiens, 96H. How it is done:
as §3, §2, §4

A further data set relates to XG11. Description: Cell viability assay (Cell Titer-Glo), HMCL. It is filed as cell-based. Conditions: Homo sapiens, 96H. The method, then:
as §3, §2, §4

The subject of a further data set is XG6. Description: Cell viability assay (Cell Titer-Glo), HMCL. It is filed as cell-based. Conditions: Homo sapiens; XG6 HMCL, 96H; read-out: IC50. How it is done:
as §3, §2, §4

A further data set deals with XG-19. Put plainly: Cell viability assay (Cell Titer-Glo), HMCL. Conditions: Homo sapiens; XG-19 HMCL, 96H. It is filed as cell-based. The method, then:
as §3, §2, §4

The test system of a further data set is MOLP-8. Put plainly: Cell viability assay (Cell Titer-Glo), HMCL. The format is cell-based. The conditions noted are these: Homo sapiens; MOLP-8 HMCL, 96H; read-out: IC50. How it is done: as §3, §2, §4
The test system of a further data set is XG28. Put plainly: Cell viability assay (Cell Titer-Glo), HMCL. Conditions: Homo sapiens; XG28 HMCL, 96H; read-out: IC50. It is filed as cell-based. How it is done: as §3, §2, §4
The test system of a further data set is OPM-2. Description: Cell viability assay (Cell Titer-Glo), HMCL. The conditions noted are these: Homo sapiens; OPM-2 HMCL, 96H; read-out: IC50. It is filed as cell-based. How it is done:
as §3, §2, §4

Another data set deals with XG12. Put plainly: Cell viability assay (Cell Titer-Glo), HMCL. The conditions noted are these: Homo sapiens; XG12 HMCL, 96H; read-out: IC50. It is filed as cell-based. How it is done:
as §3, §2, §4

In general, IC50 refers to the concentration that gives 50% inhibition. On to `C#CCN[C@@H]1C=C[C@]2(O[C@H]([C@@H](CC)C(=O)[C@@H](C)[C@@H](O)[C@H](C)[C@@H]3O[C@@H]([C@@H](CC)C(=O)O)CC[C@@H]3C)[C@@H](C)C[C@H]2C)O[C@@]12CC[C@@](C)([C@H]1CC[C@](O)(CC)[C@H](C)O1)O2` [Ironomycin], for which, in [1], the “proliferation of MM cells (cell cycle)” value is given as “inhibition of proliferation of MM cells”. For the same compound, in [2], the “toxicity on normal hematopoietic progenitors” value is recorded as “low toxicity”. Besides, in data set [3], the apoptosis induction entry is on record as “induces apoptosis”. The “interaction effect, combined with melphalan” value in [4] is recorded as “remains synergistic”. Also, the IC50 turned out to be 239 nM in the data set with XG-1; 57 nM in the data set with AMO-1; 156 nM in the data set on XG21; 84 nM with JJN3; 19 nM in the data set with XG24; 52 nM with XG-7. Moreover, the half-inhibitory concentration (IC50) in the data set with RPMI worked out at 73 nM; in the data set on XG20, 444 nM; in the data set with L363, 13 nM; in the data set with XG2 it was 24 nM; in the data set with XG11 it was 51 nM; in the data set with XG6, 26 nM. In addition, the IC50 with XG-19 is 27 nM; with MOLP-8 it was 64.7 nM; with XG28 it was 31 nM; in the data set with OPM-2 it was 36 nM; in the data set on XG12 it was 30 nM.
